{
  "source": "patent US11998539B2",
  "about": "“Substituted aminoquinolones as DGKalpha inhibitors for immune activation” (Bayer Aktiengesellschaft, priority 2019, dated 2024)",
  "data": [
    {"target": "DGKα (Homo sapiens (Human), UniProt P23743)", "sequence (P23743 other isoform, or with tags, fused parts or gaps)": "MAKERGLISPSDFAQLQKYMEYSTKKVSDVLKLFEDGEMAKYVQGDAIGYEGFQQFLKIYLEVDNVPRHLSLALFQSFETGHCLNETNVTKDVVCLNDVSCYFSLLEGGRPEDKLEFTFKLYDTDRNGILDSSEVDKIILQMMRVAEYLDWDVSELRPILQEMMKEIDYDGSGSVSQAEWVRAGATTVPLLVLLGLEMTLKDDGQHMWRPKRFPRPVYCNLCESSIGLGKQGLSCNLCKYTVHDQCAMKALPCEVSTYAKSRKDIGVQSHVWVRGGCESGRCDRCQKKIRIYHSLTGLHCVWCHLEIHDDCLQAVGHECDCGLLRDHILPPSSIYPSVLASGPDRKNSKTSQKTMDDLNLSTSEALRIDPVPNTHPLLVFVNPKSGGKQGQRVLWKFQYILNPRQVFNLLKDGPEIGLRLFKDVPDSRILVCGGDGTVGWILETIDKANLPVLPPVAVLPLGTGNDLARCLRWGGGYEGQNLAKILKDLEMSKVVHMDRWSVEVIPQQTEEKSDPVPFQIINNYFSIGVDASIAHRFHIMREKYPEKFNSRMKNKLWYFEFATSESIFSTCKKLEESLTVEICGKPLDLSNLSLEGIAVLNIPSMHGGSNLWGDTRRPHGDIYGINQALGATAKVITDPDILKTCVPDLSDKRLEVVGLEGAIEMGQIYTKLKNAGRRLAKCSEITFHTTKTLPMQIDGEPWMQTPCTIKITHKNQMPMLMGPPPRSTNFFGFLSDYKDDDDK", "assay": "Human DGKα kinase activity inhibition assay (ADP-Glo)", "type": "biochemical", "conditions": "recombinant full-length human DGKα, 55 μM ATP, 7 μM 1,2-dioleoyl-sn-glycerol, read-out: IC50 values of examples in in vitro human DGKa kinase activity inhibition assays", "in_short": "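Activity was measured as ADP production, detected by luciferase luminescence after removal of unused ATP. The enzyme was baculovirus-expressed full-length human DGKα with a C-terminal FLAG tag. The substrate was 1,2-dioleoyl-sn-glycerol in detergent micelles, and compounds came from 100× DMSO solutions.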", "units": {"IC50": "nM"}, "values": [
      {"smiles": "COCCc1ccc2nc(C3CCN(c4c(C#N)c(=O)n(C)c5ccccc45)CC3)oc2c1", "note": "[Example 284, 4-{4-[6-(2-methoxyethyl)-1,3-benzoxazol-2-yl]piperidin-1-yl}-1-methyl-2-oxo-1,2-dihydroquinoline-3-carbonitrile]", "IC50": 9.3},
      {"smiles": "Cc1ccc2oc(C3(C)CCN(c4c(C#N)c(=O)n(C)c5cc(CC6COC6)ccc45)CC3)nc2c1", "note": "[Example 285, 1-methyl-4-[4-methyl-4-(5-methyl-1,3-benzoxazol-2-yl)piperidin-1-yl]-7-[(oxetan-3-yl)methyl]-2-oxo-1,2-dihydroquinoline-3-carbonitrile]", "IC50": 10},
      {"smiles": "Cc1ccc2oc(C3(C)CCN(c4c(C#N)c(=O)n(C)c5ccc(CC6COC6)cc45)CC3)nc2c1", "note": "[Example 286, 1-methyl-4-[4-methyl-4-(5-methyl-1,3-benzoxazol-2-yl)piperidin-1-yl]-6-[(oxetan-3-yl)methyl]-2-oxo-1,2-dihydroquinoline-3-carbonitrile]", "IC50": 374},
      {"smiles": "Cn1c(=O)c(C#N)c(N2CCC(c3nc4cc(C5COC5)ccc4o3)CC2)c2ccccc21", "note": "[Example 287, 1-methyl-4-{4-[5-(oxetan-3-yl)-1,3-benzoxazol-2-yl]piperidin-1-yl}-2-oxo-1,2-dihydroquinoline-3-carbonitrile]", "IC50": 22},
      {"smiles": "Cc1ccc2oc(C3(C)CCN(c4c(C#N)c(=O)n(C)c5ccccc45)CC3)nc2c1", "note": "[Example 288, 1-methyl-4-[4-methyl-4-(5-methyl-1,3-benzoxazol-2-yl)piperidin-1-yl]-2-oxo-1,2-dihydroquinoline-3-carbonitrile]", "IC50": 3.8},
      {"smiles": "Cc1ccc2oc(C3CCN(c4c(C#N)c(=O)n(C)c5cc(C(F)(F)F)ccc45)CC3)nc2c1", "note": "[Example 289, 1-methyl-4-[4-(5-methyl-1,3-benzoxazol-2-yl)piperidin-1-yl]-2-oxo-7-(trifluoromethyl)-1,2-dihydroquinoline-3-carbonitrile]", "IC50": 8.3},
      {"smiles": "Cc1ccc2oc(C3(C)CCN(c4c(C#N)c(=O)n(C)c5cc(C(F)(F)F)ccc45)CC3)nc2c1", "note": "[Example 290, 1-methyl-4-[4-methyl-4-(5-methyl-1,3-benzoxazol-2-yl)piperidin-1-yl]-2-oxo-7-(trifluoromethyl)-1,2-dihydroquinoline-3-carbonitrile]", "IC50": 10},
      {"smiles": "Cn1c(=O)c(C#N)c(N2CCC(c3nc4ccccc4o3)CC2)c2ccc(C(F)(F)F)cc21", "note": "[Example 291, 4-[4-(1,3-benzoxazol-2-yl)piperidin-1-yl]-1-methyl-2-oxo-7-(trifluoromethyl)-1,2-dihydroquinoline-3-carbonitrile]", "IC50": 11},
      {"smiles": "Cn1c(=O)c(C#N)c(N2CCC(C)(c3nc4ccccc4o3)CC2)c2ccc(C(F)(F)F)cc21", "note": "[Example 292, 4-[4-(1,3-benzoxazol-2-yl)-4-methylpiperidin-1-yl]-1-methyl-2-oxo-7-(trifluoromethyl)-1,2-dihydroquinoline-3-carbonitrile]", "IC50": 3.2},
      {"smiles": "Cc1ccc2oc(C3CCN(c4c(C#N)c(=O)n(C)c5cc(O)ccc45)CC3)nc2c1", "note": "[Example 293, 7-hydroxy-1-methyl-4-[4-(5-methyl-1,3-benzoxazol-2-yl)piperidin-1-yl]-2-oxo-1,2-dihydroquinoline-3-carbonitrile]", "IC50": 2.1},
      {"smiles": "Cn1c(=O)c(C#N)c(N2CCC(c3nc4ccc(Br)cc4o3)CC2)c2ccccc21", "note": "[Example 294, 4-[4-(6-bromo-1,3-benzoxazol-2-yl)piperidin-1-yl]-1-methyl-2-oxo-1,2-dihydroquinoline-3-carbonitrile]", "IC50": 12},
      {"smiles": "COCCc1ccc2oc(C3CCN(c4c(C(N)=O)c(=O)n(C)c5ccccc45)CC3)nc2c1", "note": "[Example 295, 4-{4-[5-(2-methoxyethyl)-1,3-benzoxazol-2-yl]piperidin-1-yl}-1-methyl-2-oxo-1,2-dihydroquinoline-3-carboxamide]", "IC50": 9.5},
      {"smiles": "Cn1c(=O)c(C(N)=O)c(N2CCC(C)(c3nc4ccccc4o3)CC2)c2cc(F)ccc21", "note": "[Example 296, 4-[4-(1,3-benzoxazol-2-yl)-4-methylpiperidin-1-yl]-6-fluoro-1-methyl-2-oxo-1,2-dihydroquinoline-3-carboxamide]", "IC50": 0.5},
      {"smiles": "Cn1c(=O)c(C(N)=O)c(N2CCC(C)(c3nc4ccccc4o3)CC2)c2ccc(Cl)cc21", "note": "[Example 297, 4-[4-(1,3-benzoxazol-2-yl)-4-methylpiperidin-1-yl]-7-chloro-1-methyl-2-oxo-1,2-dihydroquinoline-3-carboxamide]", "IC50": 0.6},
      {"smiles": "Cc1ccc2oc(C3CCN(c4c(C(N)=O)c(=O)n(C)c5ccc(F)cc45)CC3)nc2c1", "note": "[Example 298, 6-fluoro-1-methyl-4-[4-(5-methyl-1,3-benzoxazol-2-yl)piperidin-1-yl]-2-oxo-1,2-dihydroquinoline-3-carboxamide]", "IC50": 0.5},
      {"smiles": "Cn1c(=O)c(C(N)=O)c(N2CCC(c3nc4ccccc4o3)CC2)c2cc(F)ccc21", "note": "[Example 299, 4-[4-(1,3-benzoxazol-2-yl)piperidin-1-yl]-6-fluoro-1-methyl-2-oxo-1,2-dihydroquinoline-3-carboxamide]", "IC50": 1},
      {"smiles": "Cn1c(=O)c(C(N)=O)c(N2CCC(c3nc4ccccc4o3)CC2)c2ccc(Cl)cc21", "note": "[Example 300, 4-[4-(1,3-benzoxazol-2-yl)piperidin-1-yl]-7-chloro-1-methyl-2-oxo-1,2-dihydroquinoline-3-carboxamide]", "IC50": 1.2},
      {"smiles": "Cc1ccc2oc(C3CCN(c4c(C(N)=O)c(=O)n(C)c5cc(Cl)ccc45)CC3)nc2c1", "note": "[Example 301, 7-chloro-1-methyl-4-[4-(5-methyl-1,3-benzoxazol-2-yl)piperidin-1-yl]-2-oxo-1,2-dihydroquinoline-3-carboxamide]", "IC50": 1.4},
      {"smiles": "Cc1ccc2oc(C3(C)CCN(c4c(C(N)=O)c(=O)n(C)c5ccccc45)CC3)nc2c1", "note": "[Example 302, 1-methyl-4-[4-methyl-4-(5-methyl-1,3-benzoxazol-2-yl)piperidin-1-yl]-2-oxo-1,2-dihydroquinoline-3-carboxamide]", "IC50": 1.1},
      {"smiles": "Cn1c(=O)c(C(N)=O)c(N2CCC(C)(c3nc4ccccc4o3)CC2)c2ccc(F)cc21", "note": "[Example 303, 4-[4-(1,3-benzoxazol-2-yl)-4-methylpiperidin-1-yl]-7-fluoro-1-methyl-2-oxo-1,2-dihydroquinoline-3-carboxamide]", "IC50": 1.9},
      {"smiles": "Cc1ccc2oc(C3CCN(c4c(C(N)=O)c(=O)n(C)c5cc(F)ccc45)CC3)nc2c1", "note": "[Example 304, 7-fluoro-1-methyl-4-[4-(5-methyl-1,3-benzoxazol-2-yl)piperidin-1-yl]-2-oxo-1,2-dihydroquinoline-3-carboxamide]", "IC50": 2.1},
      {"smiles": "Cn1c(=O)c(C(N)=O)c(N2CCC(c3nc4ccccc4o3)CC2)c2ccc(F)cc21", "note": "[Example 305, 4-[4-(1,3-benzoxazol-2-yl)piperidin-1-yl]-7-fluoro-1-methyl-2-oxo-1,2-dihydroquinoline-3-carboxamide]", "IC50": 4.5},
      {"smiles": "Cn1c(=O)c(C(N)=O)c(N2CCC(C)(c3nc4ccccc4o3)CC2)c2ccc(C(F)(F)F)cc21", "note": "[Example 306, 4-[4-(1,3-benzoxazol-2-yl)-4-methylpiperidin-1-yl]-1-methyl-2-oxo-7-(trifluoromethyl)-1,2-dihydroquinoline-3-carboxamide]", "IC50": 4.1},
      {"smiles": "Cc1ccc2oc(C3CCN(c4c(C(N)=O)c(=O)n(C)c5cc(C(F)(F)F)ccc45)CC3)nc2c1", "note": "[Example 307, 1-methyl-4-[4-(5-methyl-1,3-benzoxazol-2-yl)piperidin-1-yl]-2-oxo-7-(trifluoromethyl)-1,2-dihydroquinoline-3-carboxamide]", "IC50": 5.7},
      {"smiles": "Cn1c(=O)c(C(N)=O)c(N2CCC(c3nc4ccccc4o3)CC2)c2ccc(C(F)(F)F)cc21", "note": "[Example 308, 4-[4-(1,3-benzoxazol-2-yl)piperidin-1-yl]-1-methyl-2-oxo-7-(trifluoromethyl)-1,2-dihydroquinoline-3-carboxamide]", "IC50": 6.4},
      {"smiles": "Cn1c(=O)c(C(N)=O)c(N2CCC(c3nc4ccccc4o3)CC2)c2cccc(Cl)c21", "note": "[Example 309, 4-[4-(1,3-benzoxazol-2-yl)piperidin-1-yl]-8-chloro-1-methyl-2-oxo-1,2-dihydroquinoline-3-carboxamide]", "IC50": 101},
      {"smiles": "Cn1c(=O)c(C(N)=O)c(N2CCC(C)(c3nc4ccccc4o3)CC2)c2cccc(Cl)c21", "note": "[Example 310, 4-[4-(1,3-benzoxazol-2-yl)-4-methylpiperidin-1-yl]-8-chloro-1-methyl-2-oxo-1,2-dihydroquinoline-3-carboxamide]", "IC50": 34},
      {"smiles": "Cc1ccc2c(N3CCC(C)(c4nc5ccccc5o4)CC3)c(C(N)=O)c(=O)n(C)c2c1", "note": "[Example 311, 4-[4-(1,3-benzoxazol-2-yl)-4-methylpiperidin-1-yl]-1,7-dimethyl-2-oxo-1,2-dihydroquinoline-3-carboxamide]", "IC50": 1.2},
      {"smiles": "Cc1ccc2oc(C3(C)CCN(c4c(C(N)=O)c(=O)n(C)c5cc(C)ccc45)CC3)nc2c1", "note": "[Example 312, 1,7-dimethyl-4-[4-methyl-4-(5-methyl-1,3-benzoxazol-2-yl)piperidin-1-yl]-2-oxo-1,2-dihydroquinoline-3-carboxamide]", "IC50": 0.7},
      {"smiles": "Cc1ccc2oc(C3CCN(c4c(C(N)=O)c(=O)n(C)c5cc(C)ccc45)CC3)nc2c1", "note": "[Example 313, 1,7-dimethyl-4-[4-(5-methyl-1,3-benzoxazol-2-yl)piperidin-1-yl]-2-oxo-1,2-dihydroquinoline-3-carboxamide]", "IC50": 1.5},
      {"smiles": "Cc1ccc2c(N3CCC(c4nc5ccccc5o4)CC3)c(C(N)=O)c(=O)n(C)c2c1", "note": "[Example 314, 4-[4-(1,3-benzoxazol-2-yl)piperidin-1-yl]-1,7-dimethyl-2-oxo-1,2-dihydroquinoline-3-carboxamide]", "IC50": 1.7},
      {"smiles": "COCCc1cccc2oc(C3CCN(c4c(C(N)=O)c(=O)n(C)c5ccccc45)CC3)nc12", "note": "[Example 315, 4-{4-[4-(2-methoxyethyl)-1,3-benzoxazol-2-yl]piperidin-1-yl}-1-methyl-2-oxo-1,2-dihydroquinoline-3-carboxamide]", "IC50": 46},
      {"smiles": "COCCc1ccc2nc(C3CCN(c4c(C(N)=O)c(=O)n(C)c5ccccc45)CC3)oc2c1", "note": "[Example 317, 4-{4-[6-(2-methoxyethyl)-1,3-benzoxazol-2-yl]piperidin-1-yl}-1-methyl-2-oxo-1,2-dihydroquinoline-3-carboxamide]", "IC50": 17}
    ]}
  ]
}
